Test results from US4992257A, “Dihydroporphyrins and method of treating tumors” (Efamol Holdings PLC, priority 1988, dated 1991).

Tests used:
[1] = Muscle oedema (muscle damage) for specified depths of tumour necrosis; type: in vivo; conditions: for muscle damage for specified levels of tumour necrosis, in words: versus corresponding compounds of EP-A-0,186,962
Description: (§1) In preliminary tests the new compounds have shown similar results as regards skin sensitivity to those given in EP-A-0,186,962. Moreover, the para and meta dihydroxy compounds have been shown specifically, improved properties in other respects which may be expected in all the compounds.

PC6 plasma cell tumour = assay: Tumour photo-necrosis: depth of tumour necrosis after sensitiser injection and 10 J cm^-2 light; type: in vivo, female BALB/c mice; conditions: mean ± SE
Method: (§2) the method of testing is that the PC6 plasma cell tumour, obtained initially from the Chester Beatty Research Institute, was grown by inoculating 0.3-0.6×10^6 cells subcutaneously in female BALB/c mice. It was used about two weeks later, when it was […] in its longest diameter and […] deep. Sensitisers were injected in dimethyl sulphoxide intra-peritoneally (2.5 ul g^-1) and, twenty four hours later, skin over the tumours was depilated, the mice anaesthetised and tumours exposed to 10 J cm^-2 light. Wavelengths for illumination were the longest wavelength absorption peaks in the red in solutions of sensitiser in fetal calf serum, and were 652-653 nm for the compounds of Examples 1 to 3 and 741 nm for the compound of Example 4. The light source was a copper vapour laser with an output of 10 to 12 watts (Cu 10 laser, Oxford Lasers Ltd) pumping a D2 10K dye laser (Oxford Lasers Ltd). The dye was rhodamine 640 (Applied Photophysics Ltd) for illumination at 652-653 nm and LDS-722 for illumination at 741 nm. Light intensity at the tumour surface was kept below 0.3 W cm^-2, where thermal effects were undetectable.
Twenty four hours after illumination […], 0.2 ml 1% Evans blue (Sigma) in saline was given intravenously and tumours were removed one hour later and fixed in formolsaline. The fixed tumours were sliced at right angles to the surface and the depth of necrosis measured with a dissecting microscope fitted with an eye piece graticule.

Tumour = assay: Degree of tumour necrosis obtained at an equivalent muscle damage level; type: in vivo; conditions: for tumour necrosis for specified levels of muscle damage, in words: versus corresponding compounds of EP-A-0,186,962
Description: as §1

[2] = Longest wavelength absorption peak in the red in fetal calf serum; type: physicochemical; conditions: in solutions of sensitiser in fetal calf serum
Method: as §2

[3] = at depth of tumour necrosis 3.0 mm
[4] = at depth of tumour necrosis 3.5 mm
[5] = at muscle oedema 10% increase in muscle weight
[6] = at muscle oedema 20% increase in muscle weight
[7] = at depth of tumour necrosis 4.0 mm
[8] = at depth of tumour necrosis 5.0 mm
[9] = at depth of tumour necrosis 5.5 mm

SMILES: Oc1ccc(-c2c3nc(c(-c4ccc(O)cc4)c4ccc([nH]4)c(-c4ccc(O)cc4)c4nc(c(-c5ccc(O)cc5)c5ccc2[nH]5)CC4)C=C3)cc1 [Example 1, 2,3-dihydro-5,10,15,20-tetra(p-hydroxyphenyl) porphyrin]
- Muscle Oedema (% Increase in Weight) [1, 3]: 8%
- Muscle Oedema (% Increase in Weight) [1, 4]: 10%
- muscle damage for specified levels of tumour necrosis, in words [1]: considerably less muscle damage than the corresponding compounds of EP-A-0,186,962
- Depth of Tumour Necrosis (PC6 plasma cell tumour; dose 3.125 μM/Kg i.p., 653 nm): 2.13 ± 0.50 mm
- Depth of Tumour Necrosis (PC6 plasma cell tumour; dose 6.25 μM/Kg i.p., 653 nm): 3.50 ± 0.54 mm
- Tumour Necrosis (Tumour; [5]): 3.5 mm
- Tumour Necrosis (Tumour; [6]): ~4.0 mm
- tumour necrosis for specified levels of muscle damage, in words (Tumour): more tumour necrosis than the corresponding compounds of EP-A-0,186,962

SMILES: Oc1cccc(-c2c3nc(c(-c4cccc(O)c4)c4ccc([nH]4)c(-c4cccc(O)c4)c4nc(c(-c5cccc(O)c5)c5[nH]c2CC5)C=C4)C=C3)c1 [Example 2, 2,3-dihydro-5,10,15,20-tetra(m-hydroxyphenyl) porphyrin]
- Muscle Oedema (% Increase in Weight) [1, 4]: 2%
- Muscle Oedema (% Increase in Weight) [1, 7]: 3%
- Muscle Oedema (% Increase in Weight) [1, 8]: 5%
- Muscle Oedema (% Increase in Weight) [1, 9]: 7%
- muscle damage for specified levels of tumour necrosis, in words [1]: considerably less muscle damage than the corresponding compounds of EP-A-0,186,962
- Depth of Tumour Necrosis (PC6 plasma cell tumour; dose 0.375 μM/Kg i.p., 652 nm): 3.79 ± 0.28 mm
- Depth of Tumour Necrosis (PC6 plasma cell tumour; dose 0.75 μM/Kg i.p., 652 nm): 5.41 ± 0.39 mm
- Tumour Necrosis (Tumour; [5]): 5.5-6 mm
- Tumour Necrosis (Tumour; [6]): 6.5 mm
- tumour necrosis for specified levels of muscle damage, in words (Tumour): more tumour necrosis than the corresponding compounds of EP-A-0,186,962

SMILES: Oc1ccccc1-c1c2nc(c(-c3ccccc3O)c3ccc([nH]3)c(-c3ccccc3O)c3nc(c(-c4ccccc4O)c4[nH]c1CC4)C=C3)C=C2 [Example 3, 2,3-dihydro-5,10,15,20-tetra (o-hydroxyphenyl) porphyrin]
- Depth of Tumour Necrosis (PC6 plasma cell tumour; dose 3.125 μM/Kg i.p., 652 nm): 3.69 ± 0.74 mm
- Depth of Tumour Necrosis (PC6 plasma cell tumour; dose 6.25 μM/Kg i.p., 652 nm): 4.16 ± 0.27 mm

SMILES: Oc1cccc(-c2c3nc(c(-c4cccc(O)c4)c4ccc([nH]4)c(-c4cccc(O)c4)c4nc(c(-c5cccc(O)c5)c5ccc2[nH]5)CC4)CC3)c1 [Example 4, 7,8,17,18-tetrahydro-5,10,15,20-tetra(m-hydroxyphenyl) porphyrin]
- Depth of Tumour Necrosis (PC6 plasma cell tumour; dose 0.39 μM/Kg i.p., 741 nm): 5.22 ± 1.21 mm
- longest wavelength absorption peak in the red [2]: 741 nm

SMILES: Oc1cccc(-c2c3nc(c(-c4cccc(O)c4)c4ccc([nH]4)c(-c4cccc(O)c4)c4nc(c(-c5cccc(O)c5)c5ccc2[nH]5)C=C4)C=C3)c1 [Meta (Compounds of EP-A-0186962), 5,10,15,20-tetra(m-hydroxyphenyl) porphyrin, reference compound]
- Muscle Oedema (% Increase in Weight) [1, 4]: 10%
- Muscle Oedema (% Increase in Weight) [1, 7]: 20%
- Muscle Oedema (% Increase in Weight) [1, 8]: 36%
- Muscle Oedema (% Increase in Weight) [1, 9]: 49%
- Tumour Necrosis (Tumour; [5]): 3.5 mm
- Tumour Necrosis (Tumour; [6]): 4.0 mm

SMILES: Oc1ccc(-c2c3nc(c(-c4ccc(O)cc4)c4ccc([nH]4)c(-c4ccc(O)cc4)c4nc(c(-c5ccc(O)cc5)c5ccc2[nH]5)C=C4)C=C3)cc1 [Para (Compounds of EP-A-0186962), 5,10,15,20-Tetra(p-hydroxyphenyl)porphyrin, reference compound]
- Muscle Oedema (% Increase in Weight) [1, 3]: 20%
- Muscle Oedema (% Increase in Weight) [1, 4]: 22%
- Tumour Necrosis (Tumour; [5]): 2.25 mm
- Tumour Necrosis (Tumour; [6]): 3.0 mm
